Data taken from ChEMBL document CHEMBL3853351, “Discovery of O6-benzyl glaziovianin A, a potent cytotoxic substance and a potent inhibitor of α,β-tubulin polymerization” (Bioorg Med Chem, 2016).
Several values for one entry are separate records, joined by “and”; a condition that tells them apart may be missing. Equal entries are not always repeated. Activity calls are given as the source filed them. The calls are words filed in the database; no cut-off is given here.

What was measured:
[1] = Cytotoxicity against human HeLa cells assessed as reduction in cell growth measured after 48 hrs by WST-8 assay; format: functional, cell-based
[2] = species on record: Sus scrofa; test: Inhibition of [3H]vinblastine binding to microtubule associated proteins free porcine brain alpha/beta-tubulin assessed as remaining radiolabeled binding at 100 uM measured after 5 mins by centrifugal gel filtration method relative to control
[3] = Binding affinity to porcine alpha/beta tubulin assessed as decrease in tryptophan fluorescence measured after 30 mins by tryptophan fluorescence assay; design: species or system Sus scrofa
[4] = system: HeLa; test: Mitotic arrest in human HeLa cells at 100 nM measured after 18 hrs by propidium iodide-staining based flow cytometry; format: functional, cell-based
[5] = species on record: Sus scrofa; test: Inhibition of [3H]colchicine binding to microtubule associated proteins free porcine brain alpha/beta-tubulin assessed as remaining radiolabeled binding at 100 uM measured after 5 mins by centrifugal gel filtration method relative to control
[6] = system: HeLa; test: Inhibition of bipolar spindle formation in human HeLa cells at 100 and 300 nM measured after 6 hrs by DAPI staining-based fluorescence microscopic analysis; format: functional, cell-based
[7] = Inhibition of microtubule associated proteins free porcine brain alpha/beta-tubulin polymerization measured after 10 mins by thermostatic spectrophotometric method; design: species or system Sus scrofa
[8] = species on record: Sus scrofa; test: Inhibition of microtubule associated proteins free porcine brain alpha/beta-tubulin polymerization at 3 uM measured after 10 mins by thermostatic spectrophotometric method
[9] = species on record: Homo sapiens; test: Inhibition of alpha-[32P]-GTP binding to human gamma-tubulin at 60 uM preincubated for 15 mins followed by alpha-[32P]-GTP addition measured after 30 mins relative to control
[10] = Inhibition of alpha-[32P]-GTP binding to human gamma-tubulin preincubated for 15 mins followed by alpha-[32P]-GTP addition measured after 30 mins
[11] = system: HeLa; test: Inhibition of bipolar spindle formation in human HeLa cells at 1 uM measured after 6 hrs by DAPI staining-based fluorescence microscopic analysis; format: functional, cell-based

| Structure (SMILES) | Activity [2] [%] | Activity [5] [%] | inhibition [9] [%] | IC50 [1] [µM] | Kd [3] [µM] | also measured |
| --- | --- | --- | --- | --- | --- | --- |
| C#CCOc1cc2occ(-c3cc(OC)c4c(c3OC)OCO4)c(=O)c2cc1OC |  |  |  |  |  | IC50 [10]: 0.45 µM and 0.17 µM |
| COc1cc2c(c(OC)c1OC)-c1ccc(OC)c(=O)cc1[C@@H](NC(C)=O)CC2 [COLCHICINE] |  |  |  | 0.02 | 26.6 |  |
| COc1cc2occ(-c3cc(OC)c4c(c3OC)OCO4)c(=O)c2cc1OC [GLAZIOVIANIN A] | 112 | 67.8 |  | 0.61 | 80 | inhibition [11]: Active |
| CC[C@]1(O)C[C@@H]2CN(CCc3c([nH]c4ccccc34)[C@@](C(=O)OC)(c3cc4c(cc3OC)N(C)[C@H]3[C@@](O)(C(=O)OC)[C@H](OC(C)=O)[C@]5(CC)C=CCN6CC[C@]43[C@@H]65)C2)C1 | 5.3 | 127 |  |  |  |  |

The next lines start with results.

| Activity [2] [%] | Activity [5] [%] | inhibition [9] [%] | Structure (SMILES) | IC50 [1] [µM] | Kd [3] [µM] | also measured |
| --- | --- | --- | --- | --- | --- | --- |
| 118 | 20.3 | 89.6 | COc1cc2occ(-c3cc(OC)c4c(c3OC)OCO4)c(=O)c2cc1OCc1ccccc1 | 0.07 | 1 | Activity [4]: Active; inhibition [6]: Active; IC50 [7]: 2.1 µM; inhibition [8]: Active |
|  |  | 93.3 | COc1cc2c(=O)c(-c3cc(OC)c4c(c3OC)OCO4)coc2cc1OCc1ccccc1 | 12.8 |  |  |
